Our source for the melting point and in vivo absorption values is US6706732B1, “Nasal preparation of guanidinoimino quinoline derivatives” (Takeda Chemical Industries, Ltd., priority 1999, dated 2004).

Series [1] can be described thus: Serum concentration of Compound B after nasal administration to rats. The class given is in vivo, male SD rat. The conditions noted are these: rat. On the procedure: A male SD rat (8 weeks old) was anesthetized with ether and each of the preparations of Formulation Examples 1 to 6 was given into the left nasal cavity. The dose of Compound B was 0.75 mg/kg (Formulation Example 1), 1.5 mg/kg (Formulation Example 2), 3.0 mg/kg (Formulation Example 3), 6.0 mg/kg (Formulation Example 4), 1.5 mg/kg (Formulation Example 5) and 3.0 mg/kg (Formulation Example 6). Each of the preparations of Formulation Examples 1 to 4 was taken as a portion of about 10 mg, which was filled in a polyethylene tube (INTRAMEDIC PE90, BECKTON DICKINSON) and the polyethylene tube was inserted into the nasal cavity, where it was sprayed with 2 cc of air. Each of the preparations of Formulation Examples 5 and 6 was given as a 20 μl aliquot via a micropipette (*EXCELMYDEGI* 8000, D-5, SANKO JUNYAKU). The preparation of Comparative 1 was given intravenously into a femoral vein of the rat (dose: 1 mg/kg).
After administration of the preparation, blood was taken at a certain interval via a tail vain and examined for the serum concentration of Compound B.

Turning to `Cc1ccnc2c1C(=NNC(=N)N)CC(c1ccccc1Cl)C2.Cl` (centres unmarked), the melting point was 204 °C (dec.).

As for `CS(=O)(=O)O.Cc1ccc(F)cc1C1CC(=NNC(=N)N)c2c(C)ccnc2C1` (centres unmarked), the melting point was 202 to 204 °C.

On to `Cc1ccnc2c1C(=NNC(=N)N)CC(c1cc(F)ccc1Cl)C2.Cl` (centres unmarked), for which the melting point was 268 °C (dec.).

Regarding `Cc1ccnc2c1C(=NNC(=N)N)CC(c1cc(F)ccc1F)C2.Cl` (centres unmarked), the melting point is 290 °C (dec.).

In turn, `Cc1cc(C)c2c(n1)CC(c1cc(F)ccc1C)CC2=NNC(=N)N.Cl` (centres unmarked) showed a melting point of 201 to 203 °C.

In the case of `CS(=O)(=O)O.Cc1ccnc2c1C(=NNC(=N)N)CC(c1ccccc1Cl)C2` (single isomer, unassigned; (-)) [Compound B, (−)-7-(2-chlorophenyl)-5-guanidinoimino-4-methyl-5,6,7,8-tetrahydroquinoline methanesulfonate], the melting point was in the range of 194 to 195 °C. In series [1], the in vivo absorption entry is reported as “rapid in vivo absorption”.

Consider `Cc1ccc(F)cc1C1CC(=NNC(=N)N)c2c(C)ccnc2C1.Cl` (centres unmarked) [Compound C], for which the melting point was in the range of 202 to 205 °C.

Consider `Cc1ccc(F)cc1C1CC(=NNC(=N)N)c2c(C)ccnc2C1.Cl` (centres unmarked) [Compound E], for which the melting point was in the range of 192 to 198 °C.

As for `CS(=O)(=O)O.Cc1ccnc2c1C(=NNC(=N)N)CC(c1cc(F)ccc1Cl)C2` (centres unmarked) [Compound H], the melting point is 209 to 212 °C.

`CS(=O)(=O)O.Cc1ccnc2c1C(=NNC(=N)N)CC(c1cc(F)ccc1Cl)C2` (centres unmarked) [Compound I]: the melting point fell in the range of 206 to 209 °C.
